Tests used:
Assay in all cases: biochemical
Set-up in all cases: DiscoverX kinase panel, active-site competition binding (KINOMEscan type), percent of control at one concentration
Settings in all cases: competition binding, percent of control
CAMK2A = CAMK2A (Homo sapiens, UniProt Q9UQM7)
EPHA1 = EPHA1 (Homo sapiens, UniProt P21709)
PIK3CA(H1047Y) = PIK3CA(H1047Y) (Homo sapiens, UniProt P42336, H1047Y)
ABL1-nonphosphorylated = target: T1, ABL1-nonphosphorylated (Homo sapiens, UniProt P00519)
T1 construct: nonphosphorylated

PHKG1 = PHKG1 (Homo sapiens, UniProt Q16816)
MST4 = target: T2, MST4 (Homo sapiens, UniProt Q9P289)
T2 construct: gene STK26

GRK1 = GRK1 (Homo sapiens, UniProt Q15835)
ERBB3 = ERBB3 (Homo sapiens, UniProt P21860)
MAP4K4 = MAP4K4 (Homo sapiens, UniProt O95819)
LATS1 = LATS1 (Homo sapiens, UniProt O95835)
BIKE = target: T3, BIKE (Homo sapiens, UniProt Q9NSY1)
T3 construct: gene BMP2K

IGF1R = IGF1R (Homo sapiens, UniProt P08069)
PIK3CA(I800L) = PIK3CA(I800L) (Homo sapiens, UniProt P42336, I800L)
BTK = BTK (Homo sapiens, UniProt Q06187)
ACVR2A = ACVR2A (Homo sapiens, UniProt P27037)
STK36 = STK36 (Homo sapiens, UniProt Q9NRP7)
ERK8 = target: T4, ERK8 (Homo sapiens, UniProt Q8TD08)
T4 construct: gene MAPK15

ADCK4 = target: T5, ADCK4 (Homo sapiens, UniProt Q96D53)
T5 construct: gene COQ8B

PKN2 = PKN2 (Homo sapiens, UniProt Q16513)
PIK3CG = PIK3CG (Homo sapiens, UniProt P48736)
STK39 = STK39 (Homo sapiens, UniProt Q9UEW8)

T4 sequence (Q8TD08 whole entry): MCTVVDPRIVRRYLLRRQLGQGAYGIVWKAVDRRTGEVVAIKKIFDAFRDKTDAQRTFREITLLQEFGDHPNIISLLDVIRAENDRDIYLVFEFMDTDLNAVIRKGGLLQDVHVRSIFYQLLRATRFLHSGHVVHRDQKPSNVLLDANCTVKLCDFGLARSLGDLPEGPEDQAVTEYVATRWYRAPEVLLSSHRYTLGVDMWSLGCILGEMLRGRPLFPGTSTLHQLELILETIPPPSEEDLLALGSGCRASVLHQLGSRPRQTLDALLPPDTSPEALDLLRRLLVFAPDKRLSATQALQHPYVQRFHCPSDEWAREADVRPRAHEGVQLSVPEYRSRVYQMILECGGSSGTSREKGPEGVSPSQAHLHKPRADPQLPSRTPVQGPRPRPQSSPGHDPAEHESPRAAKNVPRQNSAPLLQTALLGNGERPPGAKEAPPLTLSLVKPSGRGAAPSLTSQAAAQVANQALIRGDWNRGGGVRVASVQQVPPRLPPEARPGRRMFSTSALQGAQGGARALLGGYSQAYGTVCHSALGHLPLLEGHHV
Chain of MAP4K4 (O95819 whole entry): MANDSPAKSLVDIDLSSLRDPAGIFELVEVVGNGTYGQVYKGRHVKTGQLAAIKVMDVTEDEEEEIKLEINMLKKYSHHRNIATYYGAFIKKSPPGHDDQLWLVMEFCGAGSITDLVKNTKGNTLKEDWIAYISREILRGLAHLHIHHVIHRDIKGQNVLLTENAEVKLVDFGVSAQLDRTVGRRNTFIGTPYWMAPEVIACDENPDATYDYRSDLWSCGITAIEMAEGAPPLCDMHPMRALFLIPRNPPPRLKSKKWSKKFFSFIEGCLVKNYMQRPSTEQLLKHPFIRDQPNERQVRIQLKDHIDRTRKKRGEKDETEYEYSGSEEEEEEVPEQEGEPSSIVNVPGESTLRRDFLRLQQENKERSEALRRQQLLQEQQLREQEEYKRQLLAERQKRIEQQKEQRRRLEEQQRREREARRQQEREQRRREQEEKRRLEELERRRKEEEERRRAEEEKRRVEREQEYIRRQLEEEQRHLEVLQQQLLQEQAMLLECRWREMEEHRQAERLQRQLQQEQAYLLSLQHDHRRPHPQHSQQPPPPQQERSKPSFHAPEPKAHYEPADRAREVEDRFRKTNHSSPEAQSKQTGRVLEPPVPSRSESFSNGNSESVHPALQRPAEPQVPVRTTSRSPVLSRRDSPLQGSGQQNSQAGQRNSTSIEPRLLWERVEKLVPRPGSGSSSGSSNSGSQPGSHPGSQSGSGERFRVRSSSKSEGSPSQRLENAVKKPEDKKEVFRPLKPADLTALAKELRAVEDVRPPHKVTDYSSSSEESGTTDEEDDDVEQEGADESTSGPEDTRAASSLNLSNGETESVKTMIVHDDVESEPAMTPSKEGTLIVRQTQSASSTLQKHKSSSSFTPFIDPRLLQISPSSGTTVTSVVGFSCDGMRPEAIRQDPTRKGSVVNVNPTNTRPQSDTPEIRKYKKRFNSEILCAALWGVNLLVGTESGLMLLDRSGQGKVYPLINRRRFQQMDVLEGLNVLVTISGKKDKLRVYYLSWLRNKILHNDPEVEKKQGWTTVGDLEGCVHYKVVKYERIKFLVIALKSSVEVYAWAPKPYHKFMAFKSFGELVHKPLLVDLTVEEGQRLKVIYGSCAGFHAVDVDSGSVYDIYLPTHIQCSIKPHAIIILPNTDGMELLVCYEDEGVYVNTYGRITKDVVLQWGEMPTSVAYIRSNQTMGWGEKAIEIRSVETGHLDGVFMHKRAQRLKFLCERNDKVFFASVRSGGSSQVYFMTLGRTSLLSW
T3 sequence (Q9NSY1 whole entry): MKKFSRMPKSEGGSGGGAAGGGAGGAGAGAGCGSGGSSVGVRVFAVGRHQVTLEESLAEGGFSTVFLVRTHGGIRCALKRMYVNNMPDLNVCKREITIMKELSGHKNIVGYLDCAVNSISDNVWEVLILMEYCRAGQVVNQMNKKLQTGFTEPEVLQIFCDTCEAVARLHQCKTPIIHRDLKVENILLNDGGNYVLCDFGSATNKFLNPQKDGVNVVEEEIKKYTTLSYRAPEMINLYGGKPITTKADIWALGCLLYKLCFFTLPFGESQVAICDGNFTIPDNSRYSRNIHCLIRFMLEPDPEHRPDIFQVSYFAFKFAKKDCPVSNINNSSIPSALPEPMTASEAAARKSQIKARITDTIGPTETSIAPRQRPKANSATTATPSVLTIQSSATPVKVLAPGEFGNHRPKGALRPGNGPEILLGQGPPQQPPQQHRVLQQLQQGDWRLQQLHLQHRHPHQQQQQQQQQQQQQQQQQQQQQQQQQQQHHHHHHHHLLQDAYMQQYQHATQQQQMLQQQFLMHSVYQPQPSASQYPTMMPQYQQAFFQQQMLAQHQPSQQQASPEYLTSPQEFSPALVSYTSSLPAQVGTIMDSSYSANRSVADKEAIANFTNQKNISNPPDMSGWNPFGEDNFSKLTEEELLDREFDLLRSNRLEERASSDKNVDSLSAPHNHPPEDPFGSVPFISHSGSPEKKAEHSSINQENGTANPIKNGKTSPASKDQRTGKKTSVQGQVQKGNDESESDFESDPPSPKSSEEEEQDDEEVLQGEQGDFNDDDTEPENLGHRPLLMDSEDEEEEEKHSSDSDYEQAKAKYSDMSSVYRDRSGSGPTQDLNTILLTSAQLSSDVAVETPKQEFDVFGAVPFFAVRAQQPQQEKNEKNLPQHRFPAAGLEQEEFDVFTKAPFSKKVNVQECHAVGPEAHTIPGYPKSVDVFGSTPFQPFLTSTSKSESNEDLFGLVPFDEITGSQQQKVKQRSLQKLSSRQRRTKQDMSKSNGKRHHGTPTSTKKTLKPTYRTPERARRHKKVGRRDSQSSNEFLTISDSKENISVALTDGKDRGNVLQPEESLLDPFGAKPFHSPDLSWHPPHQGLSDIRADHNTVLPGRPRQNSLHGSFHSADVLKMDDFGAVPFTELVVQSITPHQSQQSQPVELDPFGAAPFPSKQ
Chain of PIK3CA(H1047Y) (P42336 whole entry H1047Y): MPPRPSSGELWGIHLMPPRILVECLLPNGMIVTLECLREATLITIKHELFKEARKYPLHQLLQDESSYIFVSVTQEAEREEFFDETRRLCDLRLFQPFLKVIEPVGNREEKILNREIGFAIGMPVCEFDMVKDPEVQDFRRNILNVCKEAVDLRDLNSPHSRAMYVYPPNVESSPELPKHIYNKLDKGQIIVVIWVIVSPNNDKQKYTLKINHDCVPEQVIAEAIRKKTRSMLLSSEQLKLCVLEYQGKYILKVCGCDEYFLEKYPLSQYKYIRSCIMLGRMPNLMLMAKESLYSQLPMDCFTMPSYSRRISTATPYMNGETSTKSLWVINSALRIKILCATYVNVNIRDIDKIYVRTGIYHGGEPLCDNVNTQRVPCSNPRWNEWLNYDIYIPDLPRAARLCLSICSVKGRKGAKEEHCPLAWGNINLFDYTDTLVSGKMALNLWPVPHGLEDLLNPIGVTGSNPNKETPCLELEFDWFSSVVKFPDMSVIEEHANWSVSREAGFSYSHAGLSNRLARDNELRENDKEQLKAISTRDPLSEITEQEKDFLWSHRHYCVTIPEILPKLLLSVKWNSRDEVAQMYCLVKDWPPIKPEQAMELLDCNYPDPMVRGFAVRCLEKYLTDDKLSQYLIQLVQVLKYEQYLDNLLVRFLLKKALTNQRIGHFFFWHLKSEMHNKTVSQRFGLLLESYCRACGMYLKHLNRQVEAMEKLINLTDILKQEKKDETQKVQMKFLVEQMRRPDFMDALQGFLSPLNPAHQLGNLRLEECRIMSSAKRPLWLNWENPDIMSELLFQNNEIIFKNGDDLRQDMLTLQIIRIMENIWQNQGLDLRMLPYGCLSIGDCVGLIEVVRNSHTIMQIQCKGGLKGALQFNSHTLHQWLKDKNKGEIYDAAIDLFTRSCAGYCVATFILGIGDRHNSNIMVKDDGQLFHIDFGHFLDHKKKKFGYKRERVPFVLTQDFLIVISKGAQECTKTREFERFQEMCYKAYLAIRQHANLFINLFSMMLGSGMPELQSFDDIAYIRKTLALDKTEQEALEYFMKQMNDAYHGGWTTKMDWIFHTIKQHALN
Chain of GRK1 (Q15835 whole entry): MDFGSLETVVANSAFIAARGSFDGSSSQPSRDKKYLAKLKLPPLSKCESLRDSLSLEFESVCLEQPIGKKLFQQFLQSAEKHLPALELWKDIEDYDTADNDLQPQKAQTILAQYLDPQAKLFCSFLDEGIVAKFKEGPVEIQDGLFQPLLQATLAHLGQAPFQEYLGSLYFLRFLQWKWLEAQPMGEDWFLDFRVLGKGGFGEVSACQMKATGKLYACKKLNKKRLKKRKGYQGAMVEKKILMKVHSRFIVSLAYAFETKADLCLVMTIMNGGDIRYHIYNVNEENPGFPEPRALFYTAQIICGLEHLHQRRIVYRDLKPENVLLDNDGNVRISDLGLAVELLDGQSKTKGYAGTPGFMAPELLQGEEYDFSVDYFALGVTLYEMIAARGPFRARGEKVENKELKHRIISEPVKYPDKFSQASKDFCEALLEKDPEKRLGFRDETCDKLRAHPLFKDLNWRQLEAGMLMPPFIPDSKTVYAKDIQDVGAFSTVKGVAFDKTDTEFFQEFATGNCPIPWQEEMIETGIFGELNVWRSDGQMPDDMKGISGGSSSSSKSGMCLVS
Chain of CAMK2A (Q9UQM7 whole entry): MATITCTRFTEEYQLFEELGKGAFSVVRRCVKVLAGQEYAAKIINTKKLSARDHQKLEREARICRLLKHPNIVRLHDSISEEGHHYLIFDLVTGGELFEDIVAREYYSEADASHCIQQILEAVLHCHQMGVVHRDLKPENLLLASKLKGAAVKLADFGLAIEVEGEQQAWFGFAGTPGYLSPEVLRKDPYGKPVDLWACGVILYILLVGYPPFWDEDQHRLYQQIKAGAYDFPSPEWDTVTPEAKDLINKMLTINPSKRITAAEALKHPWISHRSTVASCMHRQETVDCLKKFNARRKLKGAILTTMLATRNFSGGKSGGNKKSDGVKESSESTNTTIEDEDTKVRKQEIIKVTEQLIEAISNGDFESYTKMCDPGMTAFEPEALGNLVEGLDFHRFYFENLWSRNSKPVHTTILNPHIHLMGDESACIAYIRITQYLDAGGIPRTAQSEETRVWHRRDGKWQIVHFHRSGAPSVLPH
Chain of PIK3CA(I800L) (P42336 whole entry I800L): as the sequence (P42336 whole entry H1047Y) above, with I800L, Y1047H counted along it

With `COc1cc2c(cn1)N(C)C(=O)[C@@H](NC(=O)c1nc3n(n1)[C@H](c1ccccc1)CC3)CC2` [GNE684, (S)-N-((S)-7-methoxy-1-methyl-2-oxo-2,3,4,5-tetrahydro-1H-pyrido[3,4-b]azepin-3-yl)-5-phenyl-6,7-dihydro-5H-pyrrolo[1,2-b][1,2,4]triazole-2-carboxamide] the remaining binding at 10 µM (CAMK2A) was 69%, the remaining binding at 10 µM (EPHA1) was 93% and the remaining binding at 10 µM (PIK3CA(H1047Y)) was 93%. The remaining binding at 10 µM (ABL1-nonphosphorylated) was 67%, the remaining binding at 10 µM (PHKG1) was 77% and the remaining binding at 10 µM (MST4) was 100%. It also gave a remaining binding at 10 µM (GRK1) of 67%, a remaining binding at 10 µM (ERBB3) of 96% and a remaining binding at 10 µM (MAP4K4) of 73%. The remaining binding at 10 µM (LATS1) was 89%, the remaining binding at 10 µM (BIKE) was 100% and the remaining binding at 10 µM (IGF1R) was 87%. For the same molecule, the remaining binding at 10 µM (PIK3CA(I800L)) was 96%, the remaining binding at 10 µM (BTK) was 100% and the remaining binding at 10 µM (ACVR2A) was 82%. The remaining binding at 10 µM (STK36) was 85%, the remaining binding at 10 µM (ERK8) was 85% and the remaining binding at 10 µM (ADCK4) was 100%. It also gave a remaining binding at 10 µM (PKN2) of 84%, a remaining binding at 10 µM (PIK3CG) of 89% and a remaining binding at 10 µM (STK39) of 97%.
